# Data reported in patent US12139520B2 (priority 2020, dated 2024).
# Bridge positions count the residues as written; N and C are the ends. Square brackets hold non-standard residues; d marks the D form. Peptide text beside a SMILES is read from it. Hyp = O=C(O)[C@@H]1C[C@@H](O)CN1; Cit = NC(=O)NCCC[C@H](N)C(=O)O
# Legend:
# hAM1 receptor = hAM1 receptor (Homo sapiens, UniProt O60895+Q16602); assay: cAMP assay for in vitro receptor activation, hAM1-R; assay type: cell-based; details: cAMP assay, hAM1 receptor; read-out: hAM1R EC50
# Method in brief: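 Read-out is intracellular cAMP as a measure of receptor activation. Cells stably overexpressing hAM1 were subcloned to a monoclonal line, then thawed and seeded at 8000 cells/well in DPBS with 0.05% casein and the phosphodiesterase inhibitor IBMX at 0.5 mM.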
# hAMY3 receptor = target: T1, hAMY3 receptor (Homo sapiens, UniProt O60896+P30988); assay: cAMP assay for in vitro receptor activation, hAMY3-R; assay type: cell-based; details: cAMP assay, hAMY3 receptor; read-out: hAMY3R EC50
# T1 sequence (P30988 25-474): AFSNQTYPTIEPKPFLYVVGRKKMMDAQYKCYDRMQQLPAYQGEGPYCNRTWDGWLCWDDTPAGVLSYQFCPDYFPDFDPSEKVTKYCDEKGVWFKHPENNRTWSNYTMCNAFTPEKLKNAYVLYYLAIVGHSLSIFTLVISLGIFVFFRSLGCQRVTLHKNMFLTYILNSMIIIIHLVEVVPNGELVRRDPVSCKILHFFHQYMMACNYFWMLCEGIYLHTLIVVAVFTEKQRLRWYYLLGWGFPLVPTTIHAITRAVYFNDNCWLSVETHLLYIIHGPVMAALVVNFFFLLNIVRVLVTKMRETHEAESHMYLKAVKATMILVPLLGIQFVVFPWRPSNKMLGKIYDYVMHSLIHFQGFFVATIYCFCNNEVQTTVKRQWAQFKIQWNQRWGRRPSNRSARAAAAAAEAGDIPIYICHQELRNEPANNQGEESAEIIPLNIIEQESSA
# T1 sequence (O60896 24-148 partner): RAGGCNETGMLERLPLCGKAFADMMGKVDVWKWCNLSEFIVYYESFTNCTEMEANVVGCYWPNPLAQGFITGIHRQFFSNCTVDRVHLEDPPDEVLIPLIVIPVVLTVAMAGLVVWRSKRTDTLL
# Method in brief: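 Thawed cells from a sub-cloned monoclonal hAMY3-overexpressing line are plated in DPBS containing 0.05% casein and 0.5 mM IBMX. Test compounds are added immediately at graded doses for 30 min at room temperature. Reagents for cAMP detection are then added, and TR-FRET is recorded after one hour.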
# [1] = Physical stability of peptide analogues (Thioflavin T fibrillation); assay type: physicochemical; details: maximum ThT signal normalized between hAMY maximum and buffer background; 40° C., shaking, four days; pH 7 per table title
# Method in brief: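 Maximum ThT emission at 480 nm, after LOESS smoothing, is given as percent of the span from buffer background to hAMY. Conditions: 50 mM buffer at pH 4 or 7, 4 μM dye, 40 °C, repeated shaking, readings every 10 min for four days.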
# hAM1 receptor, sequence (Q16602 23-461): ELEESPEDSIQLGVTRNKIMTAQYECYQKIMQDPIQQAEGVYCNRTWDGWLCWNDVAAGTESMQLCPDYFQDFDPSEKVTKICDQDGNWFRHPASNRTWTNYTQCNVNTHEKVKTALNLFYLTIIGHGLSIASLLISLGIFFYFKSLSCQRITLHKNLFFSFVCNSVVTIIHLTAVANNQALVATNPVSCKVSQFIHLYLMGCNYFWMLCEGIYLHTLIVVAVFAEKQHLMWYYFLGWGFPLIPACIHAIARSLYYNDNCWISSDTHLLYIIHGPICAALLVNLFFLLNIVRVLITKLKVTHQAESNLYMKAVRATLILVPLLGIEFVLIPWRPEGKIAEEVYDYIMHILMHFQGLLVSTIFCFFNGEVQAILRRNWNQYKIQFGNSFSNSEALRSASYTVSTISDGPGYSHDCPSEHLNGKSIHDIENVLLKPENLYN
# hAM1 receptor, sequence (O60895 43-175 partner): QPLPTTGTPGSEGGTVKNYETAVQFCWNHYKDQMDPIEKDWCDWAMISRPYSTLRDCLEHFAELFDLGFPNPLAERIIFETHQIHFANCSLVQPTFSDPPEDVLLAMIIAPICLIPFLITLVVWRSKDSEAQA
EC50 (hAM1 receptor),EC50 (hAMY3 receptor),Max ThT signal (%) [1],Compound
> 5000 nM,0.007 nM,3.100%,CC[C@H](C)[C@H](NC(=O)[C@H](CCC(N)=O)NC(=O)[C@H](Cc1c[nH]cn1)NC(=O)[C@H](C)NC(=O)[C@H](CC(C)C)NC(=O)[C@H](CCCNC(=N)N)NC(=O)[C@H](CCC(N)=O)NC(=O)[C@@H](NC(=O)[C@@H](NC(=O)[C@@H]1CSSC[C@H](NC(=O)[C@@H](N)CCCCN)C(=O)N[C@@H](CC(N)=O)C(=O)N[C@@H]([C@@H](C)O)C(=O)N[C@@H](C)C(=O)N[C@@H]([C@@H](C)O)C(=O)N1)[C@@H](C)O)C(C)C)C(=O)N[C@@H](C)C(=O)N[C@@H](CCC(N)=O)C(=O)N[C@@H](Cc1ccccc1)C(=O)N[C@H](C(=O)N[C@@H](CC(=O)O)C(=O)N[C@@H](CCCCN)C(=O)N[C@@H](CC(=O)O)C(=O)N[C@@H](CCCCN)C(=O)N[C@@H](CC(=O)O)C(=O)N[C@@H](CC(N)=O)C(=O)N[C@H](C(=O)N[C@@H](C)C(=O)N1CCC[C@H]1C(=O)N1CCC[C@H]1C(=O)N[C@H](C(=O)N[C@@H](CC(N)=O)C(=O)N[C@H](C(=O)NCC(=O)N[C@@H](CO)C(=O)N[C@@H](CC(N)=O)C(=O)NCC(=O)N1C[C@H](O)C[C@H]1C(N)=O)C(C)C)[C@@H](C)O)C(C)C)[C@@H](C)O [compound 14] (H-KCNTATCTVQRLAHQIAQFTDKDKDNVAPPTNVGSNG[Hyp]-NH2; disulfide 2-7; N-terminus assumed)
> 5000 nM,0.157 nM,31.200%,CC[C@H](C)[C@H](NC(=O)[C@H](CCC(N)=O)NC(=O)[C@H](Cc1c[nH]cn1)NC(=O)[C@H](C)NC(=O)[C@H](CC(C)C)NC(=O)[C@H](CCCNC(N)=O)NC(=O)[C@H](CCC(N)=O)NC(=O)[C@@H](NC(=O)[C@@H](NC(=O)[C@@H]1CSSC[C@H](NC(=O)CN)C(=O)N[C@@H](CCCNC(=N)N)C(=O)N[C@@H]([C@@H](C)O)C(=O)NCC(=O)N[C@@H]([C@@H](C)O)C(=O)N1)[C@@H](C)O)C(C)C)C(=O)N[C@@H](Cc1ccc(O)cc1)C(=O)N[C@@H](CCC(N)=O)C(=O)N[C@@H](Cc1ccccc1)C(=O)N[C@H](C(=O)N[C@@H](CC(=O)O)C(=O)N[C@@H](CCCCN)C(=O)N[C@@H](CC(=O)O)C(=O)N[C@@H](CCCCN)C(=O)N[C@@H](CC(=O)O)C(=O)N[C@@H](CC(N)=O)C(=O)N[C@H](C(=O)N[C@@H](C)C(=O)N1CCC[C@H]1C(=O)N[C@@H](CCCNC(=N)N)C(=O)N[C@@H](CO)C(=O)N[C@@H](CCCCN)C(=O)N[C@H](C(=O)NCC(=O)N1CCC[C@H]1C(=O)N[C@@H](CCC(N)=O)C(=O)NCC(=O)N[C@@H](Cc1ccc(O)cc1)C(N)=O)C(C)C)C(C)C)[C@@H](C)O [compound 285] (H-GCRTGTCTVQ[Cit]LAHQIYQFTDKDKDNVAPRSKVGPQGY-NH2; disulfide 2-7; N-terminus assumed)
> 5000 nM,0.008 nM,0.000%,CC[C@H](C)[C@H](NC(=O)[C@H](CCC(N)=O)NC(=O)[C@H](Cc1c[nH]cn1)NC(=O)[C@H](C)NC(=O)[C@H](CC(C)C)NC(=O)[C@H](CCCNC(=N)N)NC(=O)[C@H](CCC(N)=O)NC(=O)[C@@H](NC(=O)[C@@H](NC(=O)[C@@H]1CSSC[C@H](NC(=O)[C@@H](N)CCCCN)C(=O)N[C@@H](CC(N)=O)C(=O)N[C@@H]([C@@H](C)O)C(=O)N[C@@H](C)C(=O)N[C@@H]([C@@H](C)O)C(=O)N1)[C@@H](C)O)C(C)C)C(=O)N[C@@H](Cc1ccc(O)cc1)C(=O)N[C@@H](CCC(N)=O)C(=O)N[C@@H](Cc1ccccc1)C(=O)N[C@H](C(=O)N[C@@H](CC(=O)O)C(=O)N[C@@H](CCCCN)C(=O)N[C@@H](CC(=O)O)C(=O)N[C@@H](CCCCN)C(=O)N[C@@H](C)C(=O)N[C@@H](CC(N)=O)C(=O)N[C@H](C(=O)N[C@@H](C)C(=O)N1CCC[C@H]1C(=O)N1CCC[C@H]1C(=O)N[C@H](C(=O)N[C@@H](CC(N)=O)C(=O)N[C@H](C(=O)NCC(=O)N[C@@H](CO)C(=O)N[C@@H](CC(N)=O)C(=O)NCC(=O)N1C[C@H](O)C[C@H]1C(N)=O)C(C)C)[C@@H](C)O)C(C)C)[C@@H](C)O [compound 26] (H-KCNTATCTVQRLAHQIYQFTDKDKANVAPPTNVGSNG[Hyp]-NH2; disulfide 2-7; N-terminus assumed)
